Source: paper PMC11671526, “β-caryophyllene sensitizes hepatocellular carcinoma cells to chemotherapeutics and inhibits cell malignancy through targeting MAPK signaling pathway” (Frontiers in Pharmacology, 2024)

Tested on: HepG2 cells
Test: RNA-seq transcriptome analysis of differentially expressed genes
Format: cell-based, human
Details: BCP vs control HepG2
Method: The quality and concentration of RNA were examined by MOPS RNA electrophoresis and Eppendorf BioSpectrometer. The transcriptome analysis was performed by BGI-Wuhan China. The RNA-seq dataset of this study is accessible in the Gene Expression Omnibus (GEO) with an access number of GSE276099. The sequence library for each sample was prepared using the BGISEQ-500 platform with a 50-bp single-end (SE50) format. […]2.2.1) was used to align the clean reads to the reference genome and alignment of the clean reads to the reference genes was carried out using Bowtie2 (v2.4.5) ([Langmead and Salzberg, 2012]; [Kim et al., 2015]). Gene expression levels were calculated by RSEM (v1.3.1) ([Li and Dewey, 2011]). Analysis of differential gene expression was performed using edgeR in the Bioconductor software package ([Robinson et al., 2010]). Using a standard protocol, the RNA samples were also examined by reverse transcription and quantitative polymerase chain reaction (RT-qPCR). In brief, for reverse transcription, total RNA (1 μg) and gDNA wiper Mix were incubated at 42°C for 2 min. The samples were immediately incubated with a master mix containing 10 pmol/μL of poly (dT) primers at 37°C for 15 min and 85°C for 5 s. To detect the expression of specific genes by qPCR analysis, gene-specific primers (shown in Supplementary Table S1) were mixed with the ChamQ Universal SYBER qPCR Master Mix and the reaction was conducted using the Roche Lightcycler 480. The GAPDH value was used to normalize the results of each gene. The RNA-seq data of BCP-treated HepG2 cells were screened for DEGs. Gene symbols were turned into Enterz ID using the org.Hs.eg.db Bio-conductor R package. The cluster profiler (v4.6.2) package was used to perform the Kyoto Encyclopedia of Genes and Genomes (KEGG) and Gene Ontology (GO) enrichment analyses ([Wu et al., 2021]). Following the Transcript per million (TPM) data of the dataset, the line chart, and heatmap were plotted using ggplot2 and pheatmap R packages, respectively.

SMILES: C=C1CC/C=C(\C)CC[C@@H]2[C@@H]1CC2(C)C [BCP, β-caryophyllene]
- logFC LIPH (gene LIPH, RNA-seq): -0.6901
- change LIPH (gene LIPH, DEG direction): Down
- logFC LOC107984590 (gene LOC107984590, RNA-seq): -1.673
- change LOC107984590 (gene LOC107984590, DEG direction): Down
- logFC LRRK1 (gene LRRK1, RNA-seq): -0.9626
- change LRRK1 (gene LRRK1, DEG direction): Down
- logFC LYSMD4 (gene LYSMD4, RNA-seq): -0.6364
- change LYSMD4 (gene LYSMD4, DEG direction): Down
- logFC MAB21L4 (gene MAB21L4, RNA-seq): 0.9293
- change MAB21L4 (gene MAB21L4, DEG direction): Up
- logFC MAFA (gene MAFA, RNA-seq): -0.8959
- change MAFA (gene MAFA, DEG direction): Down
- logFC MAGEB17 (gene MAGEB17, RNA-seq): -2.787
- change MAGEB17 (gene MAGEB17, DEG direction): Down
- logFC MALL (gene MALL, RNA-seq): -0.8293
- change MALL (gene MALL, DEG direction): Down
- logFC MAMDC2 (gene MAMDC2, RNA-seq): 1.292
- change MAMDC2 (gene MAMDC2, DEG direction): Up
- logFC MAP1A (gene MAP1A, RNA-seq): -1.186
- change MAP1A (gene MAP1A, DEG direction): Down
- logFC MAP7 (gene MAP7, RNA-seq): 0.7065
- change MAP7 (gene MAP7, DEG direction): Up
- logFC MEF2B (gene MEF2B, RNA-seq): -1.481
- change MEF2B (gene MEF2B, DEG direction): Down
- logFC METTL7A (gene METTL7A, RNA-seq): -1.025
- change METTL7A (gene METTL7A, DEG direction): Down
- logFC MFSD12 (gene MFSD12, RNA-seq): 0.7075
- change MFSD12 (gene MFSD12, DEG direction): Up
- logFC MMP17 (gene MMP17, RNA-seq): 0.8815
- change MMP17 (gene MMP17, DEG direction): Up
- logFC MMP24 (gene MMP24, RNA-seq): 1.043
- change MMP24 (gene MMP24, DEG direction): Up
- logFC MNX1 (gene MNX1, RNA-seq): -0.6432
- change MNX1 (gene MNX1, DEG direction): Down
- logFC MRPS6 (gene MRPS6, RNA-seq): -0.923
- change MRPS6 (gene MRPS6, DEG direction): Down
- logFC MTUS2 (gene MTUS2, RNA-seq): -1.542
- change MTUS2 (gene MTUS2, DEG direction): Down
- logFC MXD4 (gene MXD4, RNA-seq): -0.5803
- change MXD4 (gene MXD4, DEG direction): Down
- logFC MYEOV (gene MYEOV, RNA-seq): -0.7568
- change MYEOV (gene MYEOV, DEG direction): Down
- logFC MYH15 (gene MYH15, RNA-seq): -1.78
- change MYH15 (gene MYH15, DEG direction): Down
- logFC MYLK3 (gene MYLK3, RNA-seq): 0.5851
- change MYLK3 (gene MYLK3, DEG direction): Up
- logFC MYT1L (gene MYT1L, RNA-seq): 0.8858
- change MYT1L (gene MYT1L, DEG direction): Up
- logFC MYZAP (gene MYZAP, RNA-seq): -1.044
- change MYZAP (gene MYZAP, DEG direction): Down
- logFC NDC80 (gene NDC80, RNA-seq): 0.6133
- change NDC80 (gene NDC80, DEG direction): Up
- logFC NES (gene NES, RNA-seq): -0.6748
- change NES (gene NES, DEG direction): Down
- logFC NEXN (gene NEXN, RNA-seq): 0.7024
- change NEXN (gene NEXN, DEG direction): Up
- logFC NKD1 (gene NKD1, RNA-seq): 1.009
- change NKD1 (gene NKD1, DEG direction): Up
- logFC NKD2 (gene NKD2, RNA-seq): 0.8671
- change NKD2 (gene NKD2, DEG direction): Up
- logFC NOG (gene NOG, RNA-seq): -0.6516
- change NOG (gene NOG, DEG direction): Down
- logFC NOXO1 (gene NOXO1, RNA-seq): -0.746
- change NOXO1 (gene NOXO1, DEG direction): Down
- logFC NPIPB8 (gene NPIPB8, RNA-seq): -2.227
- change NPIPB8 (gene NPIPB8, DEG direction): Down
- logFC NR4A1 (gene NR4A1, RNA-seq): 0.6275
- change NR4A1 (gene NR4A1, DEG direction): Up
- logFC NR4A3 (gene NR4A3, RNA-seq): 0.9047
- change NR4A3 (gene NR4A3, DEG direction): Up
- logFC OASL (gene OASL, RNA-seq): -1.216
- change OASL (gene OASL, DEG direction): Down
- logFC P4HA3 (gene P4HA3, RNA-seq): 1.2167
- change P4HA3 (gene P4HA3, DEG direction): Up
- logFC PAK6 (gene PAK6, RNA-seq): -1.538
- change PAK6 (gene PAK6, DEG direction): Down
- logFC PALM3 (gene PALM3, RNA-seq): -0.7485
- change PALM3 (gene PALM3, DEG direction): Down
- logFC PAPPA (gene PAPPA, RNA-seq): 0.997
- change PAPPA (gene PAPPA, DEG direction): Up
- logFC PAQR5 (gene PAQR5, RNA-seq): -0.667
- change PAQR5 (gene PAQR5, DEG direction): Down
- logFC PCSK1 (gene PCSK1, RNA-seq): 0.7709
- change PCSK1 (gene PCSK1, DEG direction): Up
- logFC PDE7B (gene PDE7B, RNA-seq): 0.7688
- change PDE7B (gene PDE7B, DEG direction): Up
- logFC PDK1 (gene PDK1, RNA-seq): 0.6017
- change PDK1 (gene PDK1, DEG direction): Up
- logFC PDK4 (gene PDK4, RNA-seq): 1.109
- change PDK4 (gene PDK4, DEG direction): Up
- logFC PI3 (gene PI3, RNA-seq): -1.544
- change PI3 (gene PI3, DEG direction): Down
- logFC PLD1 (gene PLD1, RNA-seq): 0.6612
- change PLD1 (gene PLD1, DEG direction): Up
- logFC PLEKHG1 (gene PLEKHG1, RNA-seq): 0.983
- change PLEKHG1 (gene PLEKHG1, DEG direction): Up
- logFC PNPLA6 (gene PNPLA6, RNA-seq): -0.6244
- change PNPLA6 (gene PNPLA6, DEG direction): Down
- logFC PPP1R15A (gene PPP1R15A, RNA-seq): 0.636
- change PPP1R15A (gene PPP1R15A, DEG direction): Up
- logFC PRICKLE2 (gene PRICKLE2, RNA-seq): -2.048
- change PRICKLE2 (gene PRICKLE2, DEG direction): Down
- logFC PRKCZ (gene PRKCZ, RNA-seq): 0.789
- change PRKCZ (gene PRKCZ, DEG direction): Up
- logFC PRRG4 (gene PRRG4, RNA-seq): -0.7407
- change PRRG4 (gene PRRG4, DEG direction): Down
- logFC PSD4 (gene PSD4, RNA-seq): -0.8285
- change PSD4 (gene PSD4, DEG direction): Down
- logFC PTGS1 (gene PTGS1, RNA-seq): -1.083
- change PTGS1 (gene PTGS1, DEG direction): Down
- logFC PXDN (gene PXDN, RNA-seq): 0.6603
- change PXDN (gene PXDN, DEG direction): Up
- logFC RAB17 (gene RAB17, RNA-seq): -1.103
- change RAB17 (gene RAB17, DEG direction): Down
- logFC RAB43 (gene RAB43, RNA-seq): -0.73
- change RAB43 (gene RAB43, DEG direction): Down
- logFC RAPGEF3 (gene RAPGEF3, RNA-seq): -0.8733
